Results on 11 molecules are retold here after ChEMBL document CHEMBL1154913, “Sesquiterpene lactones from Anthemis melanolepis and their antibacterial and cytotoxic activities. Prediction of their pharmacokinetic profile” (2010).

One experiment concerns Bacillus cereus. The experiment can be described thus: Antibacterial activity against Bacillus cereus clinical isolate after 48 hrs by serial dilution technique. In kind it is functional.
Experiment [1] deals with Micrococcus luteus. The experiment can be described thus: Antibacterial activity against Micrococcus luteus clinical isolate after 48 hrs by serial dilution technique. In kind it is functional.
The next experiment relates to Staphylococcus aureus. The experiment in a line: Antibacterial activity against Staphylococcus aureus ATCC 6538 after 48 hrs by serial dilution technique. Type of experiment: functional. The settings on record: ATCC 6538, 48 h.
The subject of experiment [2] is Agrobacterium tumefaciens. The experiment can be described thus: Antibacterial activity against Agrobacterium tumefaciens A 281 after 48 hrs by serial dilution technique. Type of experiment: functional. The settings on record: A 281, 48 h.
The test system of the next experiment is Pseudomonas aeruginosa. The experiment in a line: Antibacterial activity against Pseudomonas aeruginosa clinical isolate after 48 hrs by serial dilution technique. Type of experiment: functional.
The subject of a further experiment is Escherichia coli. The experiment can be described thus: Antibacterial activity against Escherichia coli ATCC 35218 after 48 hrs by serial dilution technique. In kind it is functional. Particulars: ATCC 35218, 48 h.
In a further experiment the test system is Pseudomonas tolaasii. The experiment in a line: Antibacterial activity against Pseudomonas tolaasii after 48 hrs by serial dilution technique. Type of experiment: functional.
A further experiment deals with Salmonella enterica. The experiment in a line: Antibacterial activity against Salmonella enteritidis ATCC 13076 after 48 hrs by serial dilution technique. In kind it is functional, Salmonella enterica subsp. enterica serovar Enteritidis. The settings on record: ATCC 13076, 48 h.
For experiment [3], the system named is Micrococcus luteus. The experiment in a line: Antibacterial activity against Sarcina lutea ATCC 9341 after 48 hrs by serial dilution technique. Type of experiment: functional. The settings on record: ATCC 9341, 48 h.
For the next experiment, the system named is Proteus mirabilis. The experiment can be described thus: Antibacterial activity against Proteus mirabilis clinical isolate after 48 hrs by serial dilution technique. In kind it is functional, organism-based.
In experiment [4] the test system is MCF7. The experiment in a line: Cytotoxicity against human MCF7 cells at 100 uM after 48 hrs by SRB assay. Type of experiment: functional, cell-based. In general terms: The SRB assay estimates cell density from bound dye.
Experiment [5] deals with SF-268. The experiment can be described thus: Cytotoxicity against human SF268 cells after 48 hrs by SRB assay. The settings on record: SF-268, 48 h. In kind it is functional.
For experiment [6], the system named is SF-268. The experiment can be described thus: Cytotoxicity against human SF268 at 100 uM cells after 48 hrs by SRB assay. Type of experiment: functional, cell-based.
The test system of experiment [7] is NCI-H460. The experiment in a line: Cytotoxicity against human H460 cells at 100 uM after 48 hrs by SRB assay. In kind it is functional, cell-based.
For experiment [8], the system named is NCI-H460. The experiment in a line: Cytotoxicity against human H460 cells after 48 hrs by SRB assay. Type of experiment: functional. Particulars: NCI-H460, 48 h.
The test system of a further experiment is Candida albicans. The experiment in a line: Antifungal activity against Candida albicans clinical isolate after 48 hrs by serial dilution technique. Type of experiment: functional.
Experiment [9] deals with MCF7. The experiment can be described thus: Cytotoxicity against human MCF7 cells after 48 hrs by SRB assay. In kind it is functional. Particulars: MCF7, 48 h.

Values after ≈ are worked out from the molar mass of the structure shown. Active and inactive are the calls of the source. No cut-off for these calls is given here. Bounds are passed on as bounds.

For `C=C1C(=O)O[C@H]2/C=C(\C)[C@@H](O)CC[C@@]3(C)O[C@@H]3[C@H](O)[C@H]12`, the MIC (in general, the least concentration at which growth counts as inhibited) in the experiment with Bacillus cereus amounted to 12.5 µg/mL (≈ 44.6 µM); in the experiment on Micrococcus luteus [1], 12.5 µg/mL (≈ 44.6 µM); against Staphylococcus aureus, 1.25 µg/mL (≈ 4.46 µM); in experiment [2], 25 µg/mL (≈ 89.2 µM); against Pseudomonas aeruginosa it was 50 µg/mL (≈ 178 µM); in the experiment on Escherichia coli, 25 µg/mL (≈ 89.2 µM). For the same molecule, the MIC in the experiment on Pseudomonas tolaasii amounted to 25 µg/mL (≈ 89.2 µM); with Salmonella enterica, 25 µg/mL (≈ 89.2 µM); in the experiment with Micrococcus luteus [3], 6.25 µg/mL (≈ 22.3 µM). Besides, the MIC entry with Proteus mirabilis was “inactive”.
For `C=C1C(=O)O[C@H]2C[C@@]3(C)[C@H](O)CC[C@@](C)(O)[C@@H]3[C@@H](O)[C@H]12`, the minimal inhibitory concentration (MIC) came out at 12.5 µg/mL (≈ 44.3 µM) against Bacillus cereus; 12.5 µg/mL (≈ 44.3 µM) in the experiment with Micrococcus luteus [1]; 1.25 µg/mL (≈ 4.43 µM) in the experiment with Staphylococcus aureus; 25 µg/mL (≈ 88.5 µM) in [2]; 50 µg/mL (≈ 177 µM) in the experiment on Pseudomonas aeruginosa; 25 µg/mL (≈ 88.5 µM) against Escherichia coli. The results for the minimal inhibitory concentration (MIC) against Pseudomonas tolaasii, against Salmonella enterica and in the experiment on Micrococcus luteus [3] were 25 µg/mL (≈ 88.5 µM), 25 µg/mL (≈ 88.5 µM) and 6.25 µg/mL (≈ 22.1 µM), respectively. In addition, the GI50 entry in the experiment on MCF7 [4] and with NCI-H460 [7] was “inactive” throughout. Further, the LC50 entry with MCF7 [4], in the experiment with SF-268 [6] and in the experiment with NCI-H460 [7] was “inactive” throughout. Also, the TGI entry with MCF7 [4], in the experiment with SF-268 [6] and with NCI-H460 [7] was “inactive” throughout. Moreover, in the experiment with Proteus mirabilis, the MIC result is “inactive”. Halving of growth in the experiment with SF-268 [5] (GI50) required 40.3 µM.
For `C=C1C(=O)O[C@H]2C[C@@]3(C)[C@H](O)CCC(=C)[C@@H]3[C@@H](O)[C@H]12`, the MIC in the experiment with Bacillus cereus was found to be 6.25 µg/mL (≈ 23.6 µM); in the experiment on Micrococcus luteus [1] it was 6.25 µg/mL (≈ 23.6 µM); in the experiment with Staphylococcus aureus, 0.625 µg/mL (≈ 2.36 µM); in experiment [2] it was 25 µg/mL (≈ 94.6 µM); in the experiment on Pseudomonas aeruginosa it was 25 µg/mL (≈ 94.6 µM); against Escherichia coli, 25 µg/mL (≈ 94.6 µM). The MIC against Pseudomonas tolaasii came out at 25 µg/mL (≈ 94.6 µM); in the experiment with Salmonella enterica it was 25 µg/mL (≈ 94.6 µM); in the experiment with Micrococcus luteus [3], 6.25 µg/mL (≈ 23.6 µM); against Candida albicans it was 25 µg/mL (≈ 94.6 µM). Moreover, the GI50 (as a rule, the concentration giving 50% growth inhibition) with NCI-H460 [8] came to 69 µM; with MCF7 [9] it was 52.3 µM; in the experiment with SF-268 [5], 42.7 µM. In addition, the MIC entry in the experiment on Proteus mirabilis is “inactive”. For the same molecule, the LC50 (as a rule, the concentration lethal to half of the exposed cells or organisms) in the experiment with MCF7 [9] stood at 85.8 µM. The TGI (in general, the concentration at which net growth stops) with MCF7 [9] worked out at 64.2 µM. Also, the LC50 entry in the experiment with SF-268 [6] and in the experiment on NCI-H460 [7] was “inactive” in each case. The TGI result with SF-268 [6] and in the experiment on NCI-H460 [7] was “inactive” throughout.
Take `C=C1C(=O)O[C@H]2C[C@]3(C)[C@H](O)CCC(=C)[C@@H]3[C@@H](O)[C@H]12` [ANTHEMIN B]: in the experiment on MCF7 [4], the GI50 entry is “inactive”, the LC50 result is “inactive” and the TGI entry was “inactive”. Moreover, in the experiment with SF-268 [5], it took 52.3 µM to inhibit growth by half (GI50) and net growth stopped (TGI) at 80.3 µM. Besides, the LC50 entry in the experiment on SF-268 [6] was “inactive”. In the experiment on NCI-H460 [7], the GI50 entry was “inactive”, the LC50 result is “inactive” and the TGI entry is “inactive”.
With `C=C1C[C@@H]2OC(=O)C(=C)[C@H]2[C@@H](O)/C=C(\C)CCC1=O` [ANTHEMIN C], the MIC with Bacillus cereus was found to be 12.5 µg/mL (≈ 47.7 µM); against Micrococcus luteus [1] it was 12.5 µg/mL (≈ 47.7 µM); in the experiment on Staphylococcus aureus, 1.25 µg/mL (≈ 4.77 µM); against Micrococcus luteus [3], 25 µg/mL (≈ 95.3 µM). The MIC entry with Proteus mirabilis was “inactive”.
Turning to `c1ccc(-c2ccc(C(c3ccccc3)n3ccnc3)cc2)cc1` (centres undefined) [BIFONAZOLE], the lowest concentration to inhibit growth in the experiment on Candida albicans (MIC) was 200 µg/mL (≈ 644 µM). The MIC entry in the experiment with Proteus mirabilis is “inactive”.
For `C=C1C(=O)O[C@H]2C[C@@]3(C)[C@H](C(=C)CC[C@@H]3O)[C@@H](O)[C@H]12` [ELEGALACTONE A], the MIC with Micrococcus luteus [1] and against Staphylococcus aureus was 50 µg/mL (≈ 189 µM) throughout. Further, the GI50 entry in the experiment with MCF7 [4] and with NCI-H460 [7] was “inactive” each time. In addition, the LC50 result in the experiment on MCF7 [4], in the experiment with SF-268 [6] and in the experiment on NCI-H460 [7] was “inactive” each time. The TGI result in the experiment with MCF7 [4], with SF-268 [6] and in the experiment with NCI-H460 [7] was “inactive” throughout. Moreover, in the experiment with Proteus mirabilis, the MIC entry was “inactive”. Besides, in the experiment with SF-268 [5], the GI50 was 76 µM.
Consider `CN[C@@H]1[C@H](O[C@H]2[C@H](O[C@H]3[C@H](O)[C@@H](O)[C@H](N=C(N)N)[C@@H](O)[C@@H]3N=C(N)N)O[C@@H](C)[C@]2(O)C=O)O[C@@H](CO)[C@H](O)[C@H]1O` [STREPTOMYCIN], for which the minimal inhibitory concentration (MIC) in the experiment on Bacillus cereus stood at 50 µg/mL (≈ 86 µM); with Micrococcus luteus [1], 50 µg/mL (≈ 86 µM); in experiment [2] it was 100 µg/mL (≈ 172 µM); against Escherichia coli, 100 µg/mL (≈ 172 µM); in the experiment with Pseudomonas tolaasii, 200 µg/mL (≈ 344 µM); against Salmonella enterica, 200 µg/mL (≈ 344 µM). In the experiment with Micrococcus luteus [3], this molecule displayed a minimum inhibitory concentration (MIC) of 50 µg/mL (≈ 86 µM). Also, the MIC entry with Proteus mirabilis is “inactive”.
Regarding `C=C1C(=O)O[C@H]2/C=C(\C)[C@@H](O)CC/C(C)=C/[C@@H](O)[C@H]12` [TATRIDIN A], the MIC in the experiment with Bacillus cereus is 6.25 µg/mL (≈ 23.6 µM); against Micrococcus luteus [1] it was 6.25 µg/mL (≈ 23.6 µM); with Staphylococcus aureus, 0.625 µg/mL (≈ 2.36 µM); in [2], 25 µg/mL (≈ 94.6 µM); against Pseudomonas aeruginosa it was 25 µg/mL (≈ 94.6 µM); in the experiment on Escherichia coli, 25 µg/mL (≈ 94.6 µM). The minimum inhibitory concentration (MIC) in the experiment on Pseudomonas tolaasii amounted to 25 µg/mL (≈ 94.6 µM); with Salmonella enterica it was 25 µg/mL (≈ 94.6 µM); with Micrococcus luteus [3] it was 6.25 µg/mL (≈ 23.6 µM); in the experiment with Candida albicans, 25 µg/mL (≈ 94.6 µM). In the experiment with Proteus mirabilis, the MIC result is “inactive”.
As for `C=C1C(=O)O[C@H]2CC(=C)[C@@H](O)CC/C(C)=C/[C@@H](O)[C@H]12` [TATRIDIN B], the MIC came to 6.25 µg/mL (≈ 23.6 µM) with Bacillus cereus; 6.25 µg/mL (≈ 23.6 µM) in the experiment on Micrococcus luteus [1]; 0.625 µg/mL (≈ 2.36 µM) against Staphylococcus aureus; 25 µg/mL (≈ 94.6 µM) in [2]; 25 µg/mL (≈ 94.6 µM) with Pseudomonas aeruginosa; 25 µg/mL (≈ 94.6 µM) with Escherichia coli. Further, the MIC worked out at 25 µg/mL (≈ 94.6 µM) against Pseudomonas tolaasii, 25 µg/mL (≈ 94.6 µM) in the experiment on Salmonella enterica, 6.25 µg/mL (≈ 23.6 µM) in the experiment with Micrococcus luteus [3] and 25 µg/mL (≈ 94.6 µM) in the experiment on Candida albicans. In the experiment on Proteus mirabilis, the MIC entry is “inactive”.
For the molecule `CC[C@]1(O)C[C@@H]2CN(CCc3c([nH]c4ccccc34)[C@@](C(=O)OC)(c3cc4c(cc3OC)N(C)[C@H]3[C@@](O)(C(=O)OC)[C@H](OC(C)=O)[C@]5(CC)C=CCN6CC[C@]43[C@@H]65)C2)C1` [VINBLASTINE], the concentration for 50% growth inhibition (GI50) with NCI-H460 [8], in the experiment on MCF7 [9] and in the experiment with SF-268 [5] was < 0.01 µM each time. Besides, the TGI stood at 0.35 µM in the experiment on NCI-H460 [8], 1.6 µM with MCF7 [9] and 1.64 µM in the experiment on SF-268 [5]. Moreover, the CC50 in the experiment on SF-268 [5] (read-out: LC50 (the source's name)) is 2.48 µM.
